Several values for one entry are separate records, joined by “and”; a condition that tells them apart may be missing. Equal entries are not always repeated.
Assays:
Experiment in all cases: NCI one-dose screen
Assay type in all cases: cell-based, human
A549/ATCC = settings: NSCLC A549/ATCC, 10 µM single dose
How it was run: (§1)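 At 10 μM, a single concentration, compounds were evaluated for antiproliferative effect in the NCI 60-line screen, with growth expressed relative to untreated control cells.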

SR = settings: Leukemia SR, 10 µM single dose
How it was run: as §1

EKVX = settings: NSCLC EKVX, 10 µM single dose
How it was run: (§2)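 Single dose of 10 μM tested across the full NCI-60 cell panel. Values are percent growth inhibition relative to untreated control cells, following standard NCI methodology.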

OVCAR-4 = settings: Ovarian OVCAR-4, 10 µM single dose
How it was run: as §1

MALME-3M = settings: Melanoma MALME-3M, 10 µM single dose
How it was run: as §1

RPMI-8226 = settings: Leukemia RPMI-8226, 10 µM single dose
How it was run: as §1

HS 578T = settings: Breast HS 578T, 10 µM single dose
How it was run: as §1

IGROV1 = settings: Ovarian IGROV1, 10 µM single dose
How it was run: as §1

SF-268 = settings: CNS SF-268, 10 µM single dose
How it was run: (§3)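 Screening used the full NCI panel of 60 cancer cell lines with compounds dosed once at 10 μM; the reported value is percent growth inhibition versus untreated controls.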

786-0 = settings: Renal 786-0, 10 µM single dose
How it was run: as §1

COLO 205 = settings: Colon COLO 205, 10 µM single dose
How it was run: as §1

SNB-75 = settings: for Growth Percent: CNS SNB-75, 10 µM single dose
How it was run: as §2

NCI-H522 = settings: NSCLC NCI-H522, 10 µM single dose
How it was run: as §2

HCT-116 = settings: Colon HCT-116, 10 µM single dose
How it was run: as §1

NCI-H226 = settings: NSCLC NCI-H226, 10 µM single dose
How it was run: as §2

SNB-19 = settings: CNS SNB-19, 10 µM single dose
How it was run: (§4)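 One concentration (10 μM) applied to each line of the full NCI-60 panel; percent growth compared against untreated cells.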

LOX IMVI = settings: Melanoma LOX IMVI, 10 µM single dose
How it was run: as §1

HT29 = settings: Colon HT29, 10 µM single dose
How it was run: as §1

UO-31 = settings: Renal UO-31, 10 µM single dose
How it was run: as §2

SN12C = settings: Renal SN12C, 10 µM single dose
How it was run: as §1

SK-MEL-5 = settings: Melanoma SK-MEL-5, 10 µM single dose
How it was run: as §1

CCRF-CEM = settings: Leukemia CCRF-CEM, 10 µM single dose
How it was run: as §1

NCI-H322M = settings: NSCLC NCI-H322M, 10 µM single dose
How it was run: as §1

OVCAR-5 = settings: Ovarian OVCAR-5, 10 µM single dose
How it was run: as §1

M14 = settings: Melanoma M14, 10 µM single dose
How it was run: as §1

SK-MEL-2 = settings: Melanoma SK-MEL-2, 10 µM single dose
How it was run: as §4

HOP-62 = settings: NSCLC HOP-62, 10 µM single dose
How it was run: as §4

HCC-2998 = settings: Colon HCC-2998, 10 µM single dose
How it was run: as §1

SF-539 = settings: for Growth Percent: CNS SF-539, 10 µM single dose
How it was run: as §3

SW-620 = settings: Colon SW-620, 10 µM single dose
How it was run: as §4

RXF 393 = settings: Renal RXF 393, 10 µM single dose
How it was run: as §1

TK-10 = settings: Renal TK-10, 10 µM single dose
How it was run: as §1

SK-OV-3 = settings: Ovarian SK-OV-3, 10 µM single dose
How it was run: as §1

DU-145 = settings: Prostate DU-145, 10 µM single dose
How it was run: as §1

MDA-MB-435 = settings: Melanoma MDA-MB-435, 10 µM single dose
How it was run: as §1

HL-60(TB) = settings: Leukemia HL-60(TB), 10 µM single dose
How it was run: as §1

CAKI-1 = settings: Renal CAKI-1, 10 µM single dose
How it was run: as §1

| SMILES | Growth Percent (A549/ATCC) | Growth Percent (SR) | Growth Percent (EKVX) | Growth Percent (OVCAR-4) | Growth Percent (MALME-3M) | Growth Percent (RPMI-8226) | Growth Percent (HS 578T) | Growth Percent (IGROV1) | Growth Percent (SF-268) | Growth Percent (786-0) | Growth Percent (COLO 205) | Growth Percent (SNB-75) | Growth Percent (NCI-H522) | Growth Percent (HCT-116) | Growth Percent (NCI-H226) | Growth Percent (SNB-19) | Growth Percent (LOX IMVI) | Growth Percent (HT29) | Growth Percent (UO-31) | Growth Percent (SN12C) | other results |
| --- | --- | --- | --- | --- | --- | --- | --- | --- | --- | --- | --- | --- | --- | --- | --- | --- | --- | --- | --- | --- | --- |
| COc1cccc(NC(=O)Nc2ccc(Nc3ncnc4sc(C(=O)NCCCC(=O)NO)c(C)c34)cc2)c1 [Compound 12b, 1–(4-(6-((4-(hydroxyamino)-4-oxobutyl)carbamoyl)-5-methylthieno[2,3-d]pyrimidin-4-ylamino)phenyl)-3–(3-methoxyphenyl)urea] | 105.8% and 105.84% | 108.2% and 108.25% | 92.1% and 92.11% | 99.9% and 99.93% | 95.2% and 95.25% | 106.6% and 106.68% | 99.2% | 97.0% and 97.08% | 95.1% | 105.9% | 111.3% and 111.31% | 90.6% and 90.62% | 81.7% and 81.76% | 99.2% and 99.29% | 96.6% and 96.68% | 97.9% | 90.7% and 90.77% | 95.3% | 82.0% and 82.06% | 104.5% and 104.52% | Growth Percent (SK-MEL-5): 97.3% and 97.37%; Growth Percent (CCRF-CEM): 103.5% and 103.52%; Growth Percent (NCI-H322M): 95.9% and 95.94%; Growth Percent (OVCAR-5): 107.5% and 107.59%; Growth Percent (M14): 104.0% and 104.04%; Growth Percent (SK-MEL-2): 94.6% and 94.66%; Growth Percent (HOP-62): 100.4% and 100.49%; Growth Percent (HCC-2998): 108.5% and 108.55%; Growth Percent (SF-539): 98.2% and 98.26%; Growth Percent (SW-620): 101.5% and 101.51%; Growth Percent (RXF 393): 110.4% and 110.44%; Growth Percent (TK-10): 107.7% and 107.72%; Growth Percent (SK-OV-3): 114.7% and 114.77%; Growth Percent (DU-145): 98.5% and 98.54%; Growth Percent (MDA-MB-435): 100.9%; Growth Percent (HL-60(TB)): 102.4%; Growth Percent (CAKI-1): 97.1% and 97.14% |
| Cc1c(C(=O)NCCCC(=O)NO)sc2ncnc(Nc3ccc(NC(=O)Nc4cccc(C(F)(F)F)c4)cc3)c12 [Compound 12c, 1–(4-(6-((4-(hydroxyamino)-4-oxobutyl)carbamoyl)-5-methylthieno[2,3-d]pyrimidin-4-ylamino)phenyl)-3–(3-(trifluoromethyl)phenyl)urea] | 107.3% and 107.34% | 103.3% and 103.37% | 100.0% and 100.09% | 110.1% and 110.14% | 116.7% and 116.65% | 104.0% and 104.09% | 93.9% and 93.91% | 116.7% and 116.77% | 98.7% and 98.75% | 106.6% and 106.68% | 114.9% and 114.97% | 70.7% and 70.76% | 94.1% and 94.19% | 107.2% and 107.24% | 105.6% and 105.63% | 96.8% and 96.88% | 98.1% and 98.14% | 104.0% and 104.09% | 89.6% and 89.64% | 104.6% and 104.65% | inhibition at 10 µM (SNB-75; Homo sapiens, CNS SNB-75, 10 μM): 29.2%; Growth Percent (SK-MEL-5): 100.9% and 100.91%; Growth Percent (CCRF-CEM): 107.8% and 107.81%; Growth Percent (NCI-H322M): 105.0% and 105.06%; Growth Percent (OVCAR-5): 111.3% and 111.33%; Growth Percent (M14): 107.2% and 107.23%; Growth Percent (SK-MEL-2): 107.8% and 107.86%; Growth Percent (HOP-62): 103.3%; Growth Percent (HCC-2998): 113.6% and 113.65%; Growth Percent (SF-539): 71.5% and 71.52%; inhibition at 10 µM (SF-539; Homo sapiens, CNS SF-539, 10 μM): 28.5%; Growth Percent (SW-620): 109.4% and 109.44%; Growth Percent (RXF 393): 108.5% and 108.58%; Growth Percent (TK-10): 117.7% and 117.79%; Growth Percent (SK-OV-3): 113.9% and 113.94%; Growth Percent (DU-145): 106.6% and 106.64%; Growth Percent (MDA-MB-435): 101.5% and 101.59%; Growth Percent (HL-60(TB)): 104.7% and 104.71%; Growth Percent (CAKI-1): 100.6% and 100.67% |

Source: publication PMC8253220, “Molecular design, synthesis and in vitro biological evaluation of thienopyrimidine–hydroxamic acids as chimeric kinase HDAC inhibitors: a challenging approach to combat cancer” (Journal of Enzyme Inhibition and Medicinal Chemistry, 2021)
